The values that follow come from patent US20090068207A1, “Compositions Containing Beta 2-Glycoprotein I-Derived Peptides for the Prevention and/or Treatment of Vascular Disease” (Vascular Biogenics Ltd., priority 2005, published 2009).

Values joined by “and” are separate entries in the source; they are usually repeats but may differ in a detail not shown here. Equal entries are not always repeated.

Assay [1] has as its system LDL-RD mice. The experiment in a line: Aortic sinus lesion area after oral administration, Western diet. Format: in vivo. As to conditions: for Aortic sinus lesion (μm^2): End, oral 100 μg, mean ± S.E. Here is the method: Oral Tolerance: For comparison, oral tolerance to plaque-associated molecules was induced by feeding […] of antigen every other day (for a detailed account of induction of oral tolerance, see U.S. patent application Ser. No. 09/806,400 to Shoenfeld et al filed Sep. 30, 1999), in a similar regimen to the nasal tolerance. LDL-RD mice were fed by a nasogastric tube, five doses (every other day) of human or bovine β2GPI in PBS in two different concentrations (500 and 50 μg/dose).
Oral tolerance to β2GPI-derived peptides, alone or in combination was induced by feeding 100 μg of the peptides (prepared in PBS, 0.2 ml), as detailed hereinabove, every other day for a total of 5 doses of 100 μg. One day following the last feeding, all mice were switched from chow-diet to an atherogenic “Western” diet and sacrificed five weeks later.
(§1) Assessment of Atherosclerosis: Quantification of atherosclerotic fatty streak lesions was done by calculating the lesion size in the aortic sinus as previously described (16) and by calculating the lesion size in the aorta. Briefly, after perfusion with saline Tris EDTA, the heart and the aorta were removed from the animals and the peripheral fat cleaned carefully. The upper section of the heart was embedded in OCT medium (10.24% w/w polyvinyl alcohol; 4.26% w/w polyethylene glycol; 85.50% w/w nonreactive ingredients) and frozen. Every other section (10 μm thick) throughout the aortic sinus (400 μm) was taken for analysis. The distal portion of the aortic sinus was recognized by the three valve cusps that are the junctions of the aorta to the heart. […] Lesion areas per section were scored on a grid (17) by an observer counting unidentified, numbered specimens. The aorta was dissected from the heart and surrounding adventitious tissue was removed. Fixation of the aorta and Sudan staining of the vessels were performed as previously described (21).
LDL-receptor deficient (LDL-RD; LDLR −/−) mice created on a C57BL/6 background develop accelerated atherosclerosis when fed a high cholesterol diet, but not when fed a regular chow diet. In order to determine whether mucosal administration of the plaque antigen β2GPI could suppress atherogenic processes, LDL-RD mice were fed low, oral tolerance inducing doses of human and bovine β2GPI, and the assessed for alterations in response to diet.

A further assay deals with lymph node cells. The experiment in a line: Lymph node cell proliferation (stimulation index) to oxLDL after oral administration. Format: in vivo, mice. As to conditions: oral, LDL-RD mice immunized with OxLDL; for reduction in Stimulation Index of OxLDL-sensitized lymph node cells / Stimulation index / effect on Stimulation Index of sensitized lymph node cells in response to OxLDL: 3 doses of 100 μg; for Stimulation index: OxLDL challenge, mean ± S.E. The method, then:
Proliferation was measured by the incorporation of [^3H] thymidine into DNA during the final 12 h of incubation. The results were computed as stimulation index: the ratio of the mean cpm of the antigen to the mean background cpm obtained in the absence of the antigen.
[…] Three days after the final administration of peptides, the mice were immunized with OxLDL in incomplete Freund's adjuvant, as described in the Examples above, and lymph node cells assessed for antigen (OxLDL) stimulation of proliferation 10 days later. Proliferation was assessed by incorporation of thymidine, expressed as the Stimulation Index, as described.

In assay [2] the test system is LDL-RD mice. The experiment in a line: Aortic sinus lesion area after intraperitoneal immunization with incomplete Freund's adjuvant. The conditions noted are these: for Aortic sinus lesion (μm^2): End, intraperitoneal with incomplete Freund's adjuvant, head 100 μg, mean ± S.E. Format: in vivo. Here is the method: Intraperitoneal immunization with human β2GPI-derived peptides: human β2GPI-derived peptides were dissolved in PBS and mixed with equal volumes of Freund's incomplete adjuvant. […] One week following the last immunization, the diet was switched from chow to atherogenic “Western” diet for five weeks, and then the mice were sacrificed.
as §1
Immunization with Human β2GPI-derived peptides mildly attenuates the early atherogenesis in LDL RD mice: In order to compare the effects of different modes of administration of human β2GPI-derived peptides on atherosclerosis, human β2GPI-derived peptides and human β2GPI were administered intraperitoneally (IP) with incomplete Freund's adjuvant, in LDL RD mice, effectively immunizing the mice, as opposed to the tolerance effected by mucosal administration.
Data presented in FIG. 11, and Table 7, clearly indicates a non-specific inhibitory effect of immunization (see PBS vs Non-immunized) on the size of the aortic sinus lesions in the susceptible LDL RD mice. On an average, immunization with the human β2GPI-derived peptides was equally, if not more, effective in inhibiting atherogenesis as immunization with human β2GPI, or with PBS prepared in incomplete Freund's adjuvant. In contrast to the protection achieved with mucosal administration, the different peptides S-1, S-2, S-3 and S-4 provided widely divergent, and diminished (34% or less) degrees of protection, as compared with controls.

Assay [3] concerns ApoE-KO mice. The experiment in a line: Aortic sinus lesion area after oral administration in ApoE-KO mice. The assay is classed as in vivo. The conditions noted are these: oral 50 μg, 5 doses.
Description: as §1, with “Fixation of the aorta and Sudan staining of the vessels were performed as previously described (21).” left out
In order to determine the protective effect of mucosal administration of β2GPI on development of atherosclerosis, adult ApoE-KO mice were treated with oral administration of human β2GPI. […] Lesion area calculated from cryosections of the aortic sinus were compared between control untreated 20 week old mice, and mice following 16 weeks oral administration of β2GPI or PBS. […]

Assay [4] has as its system ApoE-KO mice. The experiment in a line: Aortic sinus lesion area after nasal administration in ApoE-KO mice. Format: in vivo. As to conditions: End, nasal 10 μg/mouse, mean ± S.E. Here is the method:
Nasal Tolerance: Nasal tolerance was induced by intranasal administration of oxidized LDL, β2GPI, β2GPI-derived peptides or HSP65, in a total volume of 10 μl PBS. Intranasal administration was performed on mildly sedated mice (12-16 weeks old), each mouse receiving […] of antigen per dose, in the indicated concentrations, every other day. Atherogenesis was induced by 5 weeks of a Western diet initiated on the day following the last intranasal administration, or assessed (in Apo E KO mice) after 8 weeks on a chow diet. Controls received equal amounts of BSA and/or PBS, as indicated, in an identical regimen. Plasma was obtained for assessment of cholesterol and triglyceride levels from all mice, and the mice were sacrificed for evaluation of atherosclerosis, as described hereinbelow, after 5 weeks Western diet, or (in Apo E KO mice) after 8 weeks on a chow diet.
Assessment of Atherosclerosis: Quantification of atherosclerotic fatty streak lesions was done by calculating the lesion size in the aortic sinus as previously described (16) and by calculating the lesion size in the aorta. Briefly, after perfusion with saline Tris EDTA, the heart and the aorta were removed from the animals and the peripheral fat cleaned carefully. […] Lesion areas per section were scored on a grid (17) by an observer counting unidentified, numbered specimens. […]

For assay [5], the system named is LDL-RD mice. The experiment in a line: Aortic sinus lesion area after nasal tolerance induction, Western diet. The assay is classed as in vivo.
Description: Nasal Tolerance: Nasal tolerance was induced by intranasal administration of oxidized LDL, β2GPI, β2GPI-derived peptides or HSP65, in a total volume of 10 μl PBS. Intranasal administration was performed on mildly sedated mice (12-16 weeks old), each mouse receiving 3 doses of antigen per dose, in the indicated concentrations, every other day. Atherogenesis was induced by 5 weeks of a Western diet initiated on the day following the last intranasal administration, or assessed (in Apo E KO mice) after 8 weeks on a chow diet. Controls received equal amounts of BSA and/or PBS, as indicated, in an identical regimen. Plasma was obtained for assessment of cholesterol and triglyceride levels from all mice, and the mice were sacrificed for evaluation of atherosclerosis, as described hereinbelow, after 5 weeks Western diet, or (in Apo E KO mice) after 8 weeks on a chow diet.
Assessment of Atherosclerosis: Quantification of atherosclerotic fatty streak lesions was done by calculating the lesion size in the aortic sinus as previously described (16) and by calculating the lesion size in the aorta. Briefly, after perfusion with saline Tris EDTA, the heart and the aorta were removed from the animals and the peripheral fat cleaned carefully. The upper section of the heart was embedded in OCT medium (10.24% w/w polyvinyl alcohol; 4.26% w/w polyethylene glycol; 85.50% w/w nonreactive ingredients) and frozen. Every other section (10 μm thick) throughout the aortic sinus (400 μm) was taken for analysis. The distal portion of the aortic sinus was recognized by the three valve cusps that are the junctions of the aorta to the heart. Sections were evaluated for fatty streak lesions after processing and staining with oil-red O, according to Paigen et al (Atherosclerosis, 1987; 68:231-40). Lesion areas per section were scored on a grid (17) by an observer counting unidentified, numbered specimens. The aorta was dissected from the heart and surrounding adventitious tissue was removed. Fixation of the aorta and Sudan staining of the vessels were performed as previously described (21).
Mice were bled prior to feeding (Time 0) and at the conclusion of the experiment (End) for determination of lipid profile. Atherosclerosis was assessed in heart and aorta as described above, 8 weeks after the last feeding. Mice were weighed every 2 weeks during the experiment. All mice were fed water ad libitum and a normal chow-diet containing 4.5% fat by weight (0.02% cholesterol), up to the final antigen exposure, and then a “Western” diet until sacrifice.
Thus, nasal exposure to a low dose and an exceedingly low dose of recombinant human HSP 65 were compared for their effectiveness in suppressing atherogenesis in LDL-RD mice. 58 male 12-16 week old LDL-RD mice were divided into 4 groups.

In the case of SCKVPVKKATVVYQGERVKIQ [Peptide S-3], in the assay on LDL-RD mice [1], the “Aortic sinus lesion (μm^2)” value is reported as 29269 ± 3307 μm^2. For the same substance, in the assay on lymph node cells, the “reduction in Stimulation Index of OxLDL-sensitized lymph node cells” value is listed as 93% and the Stimulation index was determined as 20 ± 6. In addition, the “Aortic sinus lesion (μm^2)” value with LDL-RD mice [2] is 45329 ± 14667 μm^2. Also, the “anti-atherogenic effect as compared to PBS+IFA” value with LDL-RD mice [2] (intraperitoneal immunization) is listed as “without any significant anti-atherogenic effect”.
With GDKVSFFCKNKE [Peptide S-4-4], the “decrease of Stimulation Index as compared with PBS-treated controls” value in the assay on lymph node cells (5 doses of 100 μg, OxLDL stimulation) was ~50% and ~60%.
On to ECLPQHAMFGNDTITCTTHGN [Peptide S-2], for which, in the assay on LDL-RD mice [1], the “Aortic sinus lesion (μm^2)” value amounted to 23636 ± 3857 μm^2. Also, in the assay with lymph node cells, the “effect on Stimulation Index of sensitized lymph node cells in response to OxLDL” value was “mildly reduced” and the Stimulation index was 168 ± 72. For the same substance, the “Aortic sinus lesion (μm^2)” value with LDL-RD mice [2] came out at 24050 ± 7755 μm^2.
With MLHGDKVSFFCKNKEKKCSYT [Peptide S-4], the “Aortic sinus lesion (μm^2)” value is given as 21125 ± 2482 μm^2 in the assay with LDL-RD mice [1]; 81923 ± 9191 μm^2 with ApoE-KO mice [3] (End, ApoE-KO mice); 23758 ± 5767 μm^2 in the assay with LDL-RD mice [2]; 107953 ± 10158 μm^2 in the assay with ApoE-KO mice [4]. Besides, the “reduction of atherosclerosis (aortic sinus lesion size) as compared with BSA- and PBS-fed controls” value in the assay on LDL-RD mice [1] (oral 100 μg/dose, 5 doses, Western diet 5 weeks) came to 61%. In addition, the “reduction of progression of atherosclerotic lesions compared to PBS controls” value in the assay on ApoE-KO mice [3] (then 8 weeks of chow diet, 10-11 week-old ApoE-KO mice) was over 50%. Also, the “reduction in Stimulation Index of OxLDL-sensitized lymph node cells” value in the assay on lymph node cells was 94%. This substance also had a Stimulation index with lymph node cells of 17 ± 10.
For the substance VCPFAGILENGAVRYTTFEY [Peptide S-1], the “Aortic sinus lesion (μm^2)” value is on record as 26750 ± 4698 μm^2 in the assay with LDL-RD mice [1] and 29968 ± 6032 μm^2 in the assay with LDL-RD mice [2]. Besides, the “effect on Stimulation Index of sensitized lymph node cells in response to OxLDL” value in the assay on lymph node cells is reported as “mildly reduced”. For the same substance, in the assay on lymph node cells, the Stimulation index is recorded as 246 ± 79.
Turning to “HSP-65: recombinant mycobacterial heat shock protein HSP 65”, in the assay on LDL-RD mice [5] (END, intranasal 10 μg/mouse every other day for 5 days, then Western diet, mean ± S.E), the “Aortic sinus lesion (μm^2)” value amounted to 44375 ± 5437 μm^2. Also, the protection from atherogenesis result in the assay on LDL-RD mice [5] (nasal, exceedingly low doses (1 μg/mouse)) was “approximately 70%”.
